Some test systems named below: NCI-H522 lung; SNB-19 CNS; NCI-H226 lung; SF-539 CNS; HS 578T breast; COLO 205 colon; DU-145 prostate; SK-OV-3 ovarian.
Common to all, as to assay: DTP human tumour cell line panel, 48 h

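In this assay, cells in 96-well plates receive the compound at five concentrations for 48 hours. Endpoints are linearly interpolated between the surrounding concentrations. GI50 = concentration required for 50% inhibition of growth. TGI: total growth inhibition.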

Usually GI50 stands for the concentration that inhibits growth by half. In general, TGI refers to the concentration at which net growth stops. Take `CSC1=Nc2c(c(C)c(-c3ccccc3)n2CCCCl)C2=NC(=O)CN12`: the GI50 was 3.86 µM with NCI-H522 lung; 3.97 µM in the experiment with SNB-19 CNS; 11 µM with NCI-H226 lung; 3.42 µM in the experiment with SF-539 CNS; 6.3 µM in the experiment with HS 578T breast; 4.13 µM in the experiment on COLO 205 colon. Further, the GI50 in the experiment on DU-145 prostate was 11.5 µM. Further, the TGI with NCI-H522 lung came out at 19.2 µM; in the experiment with SNB-19 CNS, 17.8 µM; with NCI-H226 lung it was 29.8 µM; in the experiment on SF-539 CNS it was 14 µM; in the experiment with HS 578T breast it was 35 µM; in the experiment on COLO 205 colon it was 15.2 µM. Further, the total growth inhibition concentration (TGI) in the experiment on DU-145 prostate worked out at 26.7 µM.

Take `CCN1CCC2(CC1)NC(=O)c1c(c3ccc(Cl)c(Cl)c3n1C)C2C#N` (stereo unspecified): the GI50 in the experiment with NCI-H522 lung is 5.81 µM; in the experiment with SNB-19 CNS it was 7.1 µM; with NCI-H226 lung it was 5.67 µM; with SF-539 CNS, 1.89 µM; in the experiment on HS 578T breast, 1.81 µM; with COLO 205 colon, 1.86 µM. Besides, the GI50 in the experiment with SK-OV-3 ovarian was 6.99 µM. The TGI in the experiment on NCI-H522 lung is 21.7 µM; with SNB-19 CNS, 24.5 µM; in the experiment on NCI-H226 lung, 23.7 µM; in the experiment on SF-539 CNS, 4.52 µM; with HS 578T breast, 5.57 µM; in the experiment with COLO 205 colon, 4.11 µM. The TGI with SK-OV-3 ovarian amounted to 22.2 µM.

As to `COc1cc(OC)cc(-c2ccc(-c3ccc(C(=N)N)s3)s2)c1`, the GI50 with NCI-H522 lung was 1.77 µM; in the experiment with SNB-19 CNS, 1.72 µM; in the experiment on NCI-H226 lung, 1.61 µM; in the experiment with SF-539 CNS it was 1.24 µM; in the experiment on HS 578T breast it was 1.35 µM; with COLO 205 colon, 0.209 µM. The GI50 in the experiment on DU-145 prostate was 1.31 µM. Besides, the TGI in the experiment on NCI-H522 lung stood at 3.55 µM; in the experiment on SNB-19 CNS, 3.69 µM; with NCI-H226 lung, 3.71 µM; with SF-539 CNS, 3.45 µM; in the experiment with HS 578T breast it was 3.22 µM; in the experiment with COLO 205 colon, 0.407 µM. In the experiment with DU-145 prostate, this compound came in with a TGI of 2.77 µM.

As for `COc1cccc2c1nc1cccc(OC)c1[n+]2[O-]`, the GI50 with NCI-H522 lung was 3.98 µM; with NCI-H226 lung, 10.6 µM; in the experiment with SF-539 CNS, 3.91 µM; with HS 578T breast, 5.23 µM; in the experiment on COLO 205 colon, 10.9 µM; in the experiment on SK-OV-3 ovarian it was 3.19 µM. For the same compound, the GI50 in the experiment with DU-145 prostate was 4.54 µM. Also, the TGI in the experiment on NCI-H522 lung was determined as 18.1 µM; in the experiment with NCI-H226 lung, 23.8 µM; with SF-539 CNS, 17.3 µM; in the experiment on HS 578T breast it was 31.2 µM; in the experiment with COLO 205 colon, 26.7 µM; with SK-OV-3 ovarian it was 15.7 µM. Moreover, the TGI with DU-145 prostate amounted to 16.9 µM.

In the case of `COc1cc(-c2nc(-c3nnc(-c4ccc(F)c(Cl)c4)o3)c3ccccn23)cc(OC)c1OC`, the GI50 in the experiment on NCI-H522 lung was 1.92 µM; in the experiment on SNB-19 CNS, 1.93 µM; with NCI-H226 lung, 2.38 µM; with HS 578T breast, 2.51 µM; in the experiment on COLO 205 colon it was 4.68 µM. Further, the total growth inhibition concentration (TGI) in the experiment with NCI-H522 lung was 4.66 µM; with SNB-19 CNS, 5.36 µM; in the experiment with NCI-H226 lung, 6.07 µM; with HS 578T breast, 29.2 µM; in the experiment on COLO 205 colon, above 100 µM.

In the case of `COc1cc(-c2nc3ccccc3[nH]2)ccc1OCC(=O)N=Nc1c(O)[nH]c2ccc(Cl)cc12`, the GI50 in the experiment on NCI-H522 lung is 1.48 µM; in the experiment with SNB-19 CNS it was 1.63 µM; in the experiment on NCI-H226 lung it was 1.83 µM; in the experiment on SF-539 CNS it was 1.69 µM; with COLO 205 colon, 1.89 µM; with SK-OV-3 ovarian, 1.9 µM. Moreover, in the experiment on DU-145 prostate, the GI50 was 1.68 µM. The total growth inhibition concentration (TGI) in the experiment with NCI-H522 lung is 3.48 µM; with SNB-19 CNS, 3.04 µM; with NCI-H226 lung it was 3.74 µM; in the experiment on SF-539 CNS, 3.1 µM; in the experiment with COLO 205 colon, 3.79 µM; in the experiment on SK-OV-3 ovarian, 3.93 µM. In the experiment on DU-145 prostate, this compound displayed a concentration for total growth inhibition (TGI) of 3.43 µM.

For the compound `COc1nc2c(cc1S(=O)(=O)c1ccccc1)CCc1c-2cnn1Cc1ccccc1`, the GI50 in the experiment on SNB-19 CNS is above 100 µM; with NCI-H226 lung it was 35.8 µM; in the experiment with SF-539 CNS it was 17 µM; in the experiment on HS 578T breast, 13.3 µM; with COLO 205 colon it was 7.32 µM; in the experiment with SK-OV-3 ovarian it was 9.86 µM. Also, the concentration for total growth inhibition (TGI) in the experiment on SNB-19 CNS, in the experiment with NCI-H226 lung, in the experiment with SF-539 CNS, in the experiment with HS 578T breast, in the experiment with COLO 205 colon and in the experiment with SK-OV-3 ovarian was above 100 µM in each case.

Regarding `O=[N+]([O-])c1cccc(/C=C/c2ccccn2)c1`, the GI50 in the experiment with SNB-19 CNS was 39 µM; in the experiment on NCI-H226 lung it was 33.5 µM; in the experiment with SF-539 CNS, 26.6 µM; with HS 578T breast, 32.7 µM; with COLO 205 colon, 24.3 µM; in the experiment with SK-OV-3 ovarian, 33.6 µM. Besides, the GI50 in the experiment on DU-145 prostate was 35.6 µM. Also, the concentration for total growth inhibition (TGI) in the experiment on SNB-19 CNS is above 100 µM; with NCI-H226 lung, above 100 µM; in the experiment with SF-539 CNS, above 100 µM; in the experiment on HS 578T breast, above 100 µM; in the experiment on COLO 205 colon, 95.5 µM; in the experiment with SK-OV-3 ovarian it was above 100 µM. For the same compound, in the experiment on DU-145 prostate, the TGI is above 100 µM.

For `COc1ccc2c(c1)C(=O)c1c-2c(OCCN(C)C)nc2cc(OC)ccc12`, the GI50 was 0.75 µM in the experiment with NCI-H522 lung; 1.12 µM in the experiment on SNB-19 CNS; 1.33 µM in the experiment on NCI-H226 lung; 1.61 µM with SF-539 CNS; 2.84 µM with HS 578T breast; 0.571 µM in the experiment with COLO 205 colon. In addition, the GI50 in the experiment on DU-145 prostate was 1.64 µM. In addition, the total growth inhibition concentration (TGI) in the experiment on NCI-H522 lung turned out to be 2.66 µM; with SNB-19 CNS, 6.24 µM; in the experiment on NCI-H226 lung it was 3.32 µM; in the experiment on SF-539 CNS, 3.32 µM; in the experiment on HS 578T breast, 9.76 µM; in the experiment with COLO 205 colon it was 10.8 µM. Moreover, the total growth inhibition concentration (TGI) with DU-145 prostate is 8.03 µM.

For the compound `FC(F)(F)c1[nH]ncc1-c1nc2c(N3CCCCC3)cc3[nH]ncc3c2c2c1CCCC2`, the GI50 in the experiment with NCI-H522 lung is 0.485 µM; with SNB-19 CNS, 1.25 µM; in the experiment with SF-539 CNS it was 0.567 µM; in the experiment on HS 578T breast, 0.603 µM; in the experiment on SK-OV-3 ovarian, 0.523 µM; in the experiment with DU-145 prostate, 0.702 µM. The total growth inhibition concentration (TGI) is 3.24 µM in the experiment with NCI-H522 lung; above 16.5 µM in the experiment on SNB-19 CNS; 1.22 µM in the experiment on SF-539 CNS; 2 µM with HS 578T breast; 4.22 µM with SK-OV-3 ovarian; above 13 µM in the experiment on DU-145 prostate.

Take `C=CCC(N[C@@H](CO)c1ccccc1)c1ccccn1` (stereo partly specified): the GI50 in the experiment on NCI-H522 lung is 25.8 µM; in the experiment with NCI-H226 lung it was above 100 µM; in the experiment on SF-539 CNS it was above 100 µM; in the experiment with HS 578T breast, above 100 µM; in the experiment with COLO 205 colon, above 100 µM; in the experiment with SK-OV-3 ovarian it was above 100 µM. Further, the GI50 in the experiment with DU-145 prostate is above 100 µM. Moreover, the TGI in the experiment on NCI-H522 lung, in the experiment with NCI-H226 lung, with SF-539 CNS, in the experiment with HS 578T breast, with COLO 205 colon and in the experiment with SK-OV-3 ovarian was above 100 µM in each case. The compound also yielded a TGI with DU-145 prostate above 100 µM.

The values are drawn from PubChem BioAssay (NCI).
